Data published in patent USRE38352E1, “Polymerase chain reaction assays for monitoring antiviral therapy and making therapeutic decisions in the treatment of acquired immunodeficiency syndrome” (priority 1992, dated 2003).
Values joined by “and” are separate entries in the source; they are usually repeats but may differ in a detail not shown here. Equal values may be shown once. Read-outs that look alike come from different tables or passages of the source.

Tests used:
CD4 cells = assay: CD4 cell counts in long term AZT recipients related to codon 215 genotype; format: in vivo, human (HIV-infected patients); details: for CD4 decline after serum mutation / mean decrease of CD4 cells after serum mutation: 19 patients; for mean CD4 count at the start of therapy: 26 patients who developed codon 215 mutation in serum
Experimental: Cryopreserved PBMC and serum from 40 participants in AIDS Clinical Trial Group (ACTG) protocols 019 (30 patients) and 016 (10 patients) at Stanford University Medical Center AIDS Clinical Trial Unit were used in this study. Patients at enrollment in these studies were AZT naive, had >200 CD4 cells/μl and had few (016) or no symptoms (019) referable to HIV infection. They were subsequently treated with AZT for 2 to 4 years. The most common dosage was 500 mg per day.
CD4 cell counts were obtained approximately every three months on each patient. All counts were performed at Stanford's ACTG-qualified cytofluorometry lab. Samples were stained with monoclonal antibodies to CD3, CD4, and CD8. The absolute CD4 count was calculated by multiplying the percent CD4 by the total lymphocyte count.
(§1) All comparisons between the patients with mutant and wild type strains were performed using the student's t-test. The calculations on the IC90s determined by the zidovudine sensitive assay were performed using the logl10 transformed IC90 (i.e., geometric means were used rather than arithmetic means).

[1] = tested on: HIV virus stock from patient PBMC; assay: AZT sensitivity assay (inhibition of P24 production in donor PBMC); format: cell-based; details: Human immunodeficiency virus 1, PBMC
Experimental: Patient PBMC were cocultured with mitogen-stimulated PBMC from healthy HIV-seronegative donors. Supernatants from these cultures were collected and frozen when the HIV P24 antigen concentration exceeded 10,000 pg/ml. 30-100 TCID50 (50% tissue culture infectious dose) of virus stock was used to infect one million donor PBMC pretreated with different concentrations of AZT (0.0 μM, 0.005 μM, 0.05 μM, 0.5 μM, 5.0 μM). After 7 days, P24 antigen was measured in the cell free supernatant from the cultures with and without zidovudine. The concentration of AZT required to inhibit P24 production by 90% (IC90) as compared to the drug free cultures was determined by nonlinear regression analysis (Chou et al., 1984, Adv. Enzyme Regulation 22:27-55).
as §1

[2] = tested on: HIV with codon 215 mutation; details: mutation at codon 215; cited from earlier work
plasma HIV RNA = details: patients receiving AZT; ultracentrifugation, 40 cycles (Ottman et al.); cited from earlier work
[3] = 11 patients wild type in serum over 34 months

Compound: Cc1cn([C@H]2C[C@H](N=[N+]=[N-])[C@@H](CO)O2)c(=O)[nH]c1=O [AZT, zidovudine]
- CD4 increase (CD4 cells; [3]): 2%
- increase of CD4 cells (CD4 cells; [3]): 7±92 CD4 cells/μl
- CD4 decline after serum mutation (CD4 cells; at 12 months): 40%
- mean decrease of CD4 cells after serum mutation (CD4 cells; at 12 months): 170±121 CD4 cells/μl
- CD4 decline after serum mutation (CD4 cells; at six months): 25%
- mean decrease of CD4 cells after serum mutation (CD4 cells; at six months): 100±116 CD4 cells/μl
- mean increase in absolute CD4 count, start of therapy to end of study (CD4 cells; 21 patients wild type at codon 215): 11%
- Starting absolute CD4 (CD4 cells; 21 patients wildtype at codon 215 in PBMC): 397 cells/μl and 397 ± 124 cells/μl
- mean CD4 count at first detection of codon 215 mutation in serum (CD4 cells; 26 patients): 444±206 cells/μl and 444 cells/μl
- mean CD4 count at the start of therapy (CD4 cells): 398±139 cells/μl and 398 cells/μl
- mean CD4 count at the start of therapy (CD4 cells; listed as zidovudine): 398±139 cells/μl
- starting CD4 count (CD4 cells; patients who remained wild type in serum): 397±115 cells/μl
- CD4 % at time of PCR analysis (CD4 cells; wildtype at codon 215 in PBMC): 25% and 25 ± 9%
- Starting CD4 % (CD4 cells; wildtype at codon 215 in PBMC): 26 ± 8%
- Absolute CD4 at time of PCR analysis (CD4 cells; wildtype at codon 215 in PBMC, 33 ± 8 months of AZT): 424 cell/μl and 424 ± 210 cell/μl
- Starting CD4 % (CD4 cells; {}): 25 ± 6%
- decrease in absolute CD4 count, start of therapy to end of study (CD4 cells; {}): 50%
- IC90 ([1]; 168 h, isolates from AZT-naive patients, 7 days, read-out: IC90 (inhibition of P24 production by 90%), range): 0.002 to 0.038 µM
- IC90 ([1]; nine patients with a mutation at codon 215, read-out: IC90 range): 0.03 to 8 µM
- IC90 ([1]; read-out: IC90 range, eight patients with wild type form at codon 215): 0.02 to 0.28 µM
- IC90 ([1]; read-out: geometric mean IC90, eight patients with wild type form at codon 215, post-treatment PBMC): 0.04 µM
- IC90 ([1]; read-out: geometric mean IC90, nine patients with a mutation at codon 215): 0.41 µM
- decrease in zidovudine susceptibility [2]: 16 fold
- patients with detectable plasma HIV RNA signal (plasma HIV RNA): 24 of 25
